Laboratory results reported in ChEMBL document CHEMBL3885861, “Open TG-GATES”.

Organism: Rattus norvegicus
Test: Open TG-GATES - Regimen: Single
Assay type: toxicity, organism-based, Sprague-Dawley
Parameters: regimen Single, gender Male, age 6 weeks
Settings: in vivo, po, route gavage; for Bas / Eos / Fbg / Hb / Ht / Lym / MCHC / Mono / Plat / RBC / Ret / WBC / MCH / Neu / PT: tissue Blood; for KIDNEY_L / KIDNEY_R / KIDNEY_TOTAL: tissue Kidney; for LIVER: tissue Liver
[1] = 40 mg/kg, 24 h, tissue Plasma, dose level Low
[2] = 120 mg/kg, 3 h, dose level Middle
[3] = 120 mg/kg, 3 h, tissue Plasma, dose level Middle
[4] = 120 mg/kg, 6 h, dose level Middle
[5] = 120 mg/kg, 6 h, tissue Plasma, dose level Middle
[6] = 120 mg/kg, 9 h, dose level Middle
[7] = 120 mg/kg, 9 h, tissue Plasma, dose level Middle
[8] = 120 mg/kg, 24 h, dose level Middle
[9] = 120 mg/kg, 24 h, tissue Plasma, dose level Middle
[10] = 400 mg/kg, 3 h, dose level High
[11] = 400 mg/kg, 3 h, tissue Plasma, dose level High
[12] = 400 mg/kg, 6 h, dose level High
[13] = 400 mg/kg, 6 h, tissue Plasma, dose level High
[14] = 400 mg/kg, 9 h, dose level High
[15] = 400 mg/kg, 9 h, tissue Plasma, dose level High
[16] = 400 mg/kg, 24 h, dose level High
[17] = 400 mg/kg, 24 h, tissue Plasma, dose level High

## CCC(C)(C)C(=O)O[C@H]1C[C@@H](C)C=C2C=C[C@H](C)[C@H](CC[C@@H]3C[C@@H](O)CC(=O)O3)[C@H]21 [SIMVASTATIN]
[1]
  TC: 80.8 mg/dL
  TG: 87.4 mg/dL
  TP: 5.4 g/dL
  gamma-GTP: 1.8 IU/L
[2]
  TERMINAL_BW: 200.4 g
  Bas: 0%
  Eos: 1%
  Fbg: 194.4 mg/dL
  Hb: 12.5 g/dL
  Ht: 37.9%
  Lym: 81.8%
  MCHC: 32.9%
  Mono: 6.4%
  Plat: 111.3 x10_4/uL
  RBC: 573.6 x10_4/ul
  Ret: 9.1%
  WBC: 131.2 x10_2/uL
  KIDNEY_L: 0.9 g
  KIDNEY_R: 1 g
  KIDNEY_TOTAL: 1.9 g
  LIVER: 9.6 g
[3]
  ALP: 1022 IU/L
  ALT: 34.2 IU/L
  AST: 66.6 IU/L
  BUN: 11.6 mg/dL
  CRE: 0.5 mg/dL
  DBIL: 0.032 mg/dL
  IP: 8.9 mg/dL
  K: 4.7 meq/L
  LDH: 117.2 IU/L
  Na: 137.8 meq/L
  PL: 134.8 mg/dL
  RALB: 3.5 g/dL
  TBIL: 0.3 mg/dL
  TC: 74 mg/dL
  TG: 56 mg/dL
  TP: 5.5 g/dL
  gamma-GTP: 1.6 IU/L
[4]
  TERMINAL_BW: 200.1 g
  Bas: 0%
  Eos: 0.6%
  Fbg: 203.2 mg/dL
  Hb: 12.9 g/dL
  Ht: 39.4%
  Lym: 77.6%
  MCH: 21.6 pg
  MCHC: 32.9%
  Mono: 6%
  Neu: 15.8%
  PT: 11.9 s
  Plat: 114.7 x10_4/uL
  RBC: 600.4 x10_4/ul
  Ret: 8.4%
  WBC: 123.6 x10_2/uL
  KIDNEY_L: 0.9 g
  KIDNEY_R: 0.9 g
  KIDNEY_TOTAL: 1.8 g
  LIVER: 8.9 g
[5]
  ALP: 912.2 IU/L
  ALT: 28.6 IU/L
  AST: 57.2 IU/L
  CRE: 0.5 mg/dL
  DBIL: 0.086 mg/dL
  IP: 9.6 mg/dL
  K: 4.5 meq/L
  LDH: 94 IU/L
  Na: 137.6 meq/L
  PL: 119 mg/dL
  RALB: 3.5 g/dL
  TBIL: 0.4 mg/dL
  TC: 66.4 mg/dL
  TG: 44 mg/dL
  TP: 5.4 g/dL
  gamma-GTP: 1.4 IU/L
[6]
  TERMINAL_BW: 199.1 g
  Bas: 0%
  Eos: 1%
  Fbg: 217.2 mg/dL
  Hb: 12.9 g/dL
  Ht: 39.5%
  Lym: 77%
  MCH: 21.6 pg
  MCHC: 32.6%
  Mono: 6%
  Neu: 16.6%
  PT: 11.8 s
  Plat: 106.6 x10_4/uL
  RBC: 598.2 x10_4/ul
  Ret: 9%
  WBC: 82.6 x10_2/uL
  KIDNEY_L: 0.9 g
  KIDNEY_R: 0.9 g
  KIDNEY_TOTAL: 1.8 g
  LIVER: 8.3 g
[7]
  ALP: 788.6 IU/L
  ALT: 30.8 IU/L
  AST: 57.4 IU/L
  CRE: 0.5 mg/dL
  DBIL: 0.026 mg/dL
  K: 4.7 meq/L
  LDH: 88.2 IU/L
  Na: 137.6 meq/L
  PL: 119.4 mg/dL
  RALB: 3.7 g/dL
  TBIL: 0.3 mg/dL
  TC: 70.6 mg/dL
  TG: 29.6 mg/dL
  TP: 5.4 g/dL
  gamma-GTP: 1 IU/L
[8]
  TERMINAL_BW: 207.4 g
  Bas: 0%
  Eos: 1%
  Fbg: 209.2 mg/dL
  Hb: 12.8 g/dL
  Ht: 39.1%
  Lym: 79.2%
  MCHC: 32.8%
  Mono: 6.2%
  Neu: 14%
  Plat: 123 x10_4/uL
  RBC: 586 x10_4/ul
  Ret: 8.3%
  WBC: 87 x10_2/uL
  KIDNEY_L: 1 g
  KIDNEY_R: 1 g
  KIDNEY_TOTAL: 2 g
[9]
  ALP: 811 IU/L
  ALT: 44 IU/L
  AST: 67.8 IU/L
  BUN: 18 mg/dL
  CRE: 0.5 mg/dL
  DBIL: 0.044 mg/dL
  IP: 7.5 mg/dL
  K: 4.7 meq/L
  LDH: 127.8 IU/L
  Na: 139.6 meq/L
  PL: 129.4 mg/dL
  RALB: 3.9 g/dL
  TBIL: 0.4 mg/dL
  TC: 69.4 mg/dL
  TP: 5.5 g/dL
  gamma-GTP: 2.4 IU/L
[10]
  TERMINAL_BW: 201.6 g
  Bas: 0%
  Eos: 0.8%
  Fbg: 211.2 mg/dL
  Hb: 12.2 g/dL
  Ht: 37.3%
  Lym: 80.4%
  MCH: 21.5 pg
  MCHC: 32.8%
  Mono: 8.4%
  Neu: 10.8%
  PT: 11.3 s
  Plat: 110.1 x10_4/uL
  RBC: 569 x10_4/ul
  Ret: 10.9%
  WBC: 116.1 x10_2/uL
  KIDNEY_L: 1 g
  KIDNEY_R: 1 g
  KIDNEY_TOTAL: 2 g
  LIVER: 9.3 g
[11]
  ALP: 914.4 IU/L
  ALT: 30.8 IU/L
  AST: 61.6 IU/L
  BUN: 11.8 mg/dL
  CRE: 0.5 mg/dL
  DBIL: 0.062 mg/dL
  IP: 8.3 mg/dL
  K: 4.7 meq/L
  LDH: 107.8 IU/L
  Na: 136.8 meq/L
  PL: 131.4 mg/dL
  RALB: 3.6 g/dL
  TBIL: 0.3 mg/dL
  TC: 74.2 mg/dL
  TG: 37 mg/dL
  TP: 5.6 g/dL
  gamma-GTP: 1.2 IU/L
[12]
  TERMINAL_BW: 205 g
  Bas: 0%
  Eos: 1%
  Fbg: 209.4 mg/dL
  Hb: 12.5 g/dL
  Ht: 38.1%
  Lym: 80.8%
  MCH: 21.6 pg
  MCHC: 32.7%
  Mono: 4.2%
  Neu: 14.6%
  PT: 12.1 s
  Plat: 109.4 x10_4/uL
  RBC: 578.2 x10_4/ul
  Ret: 11%
  KIDNEY_L: 1 g
  KIDNEY_R: 1 g
  KIDNEY_TOTAL: 1.9 g
  LIVER: 8.8 g
[13]
  ALP: 979 IU/L
  ALT: 29.4 IU/L
  AST: 60.2 IU/L
  BUN: 9.8 mg/dL
  CRE: 0.5 mg/dL
  DBIL: 0.078 mg/dL
  IP: 9.6 mg/dL
  K: 4.9 meq/L
  LDH: 86 IU/L
  Na: 137.2 meq/L
  PL: 108 mg/dL
  RALB: 3.4 g/dL
  TBIL: 0.4 mg/dL
  TC: 59 mg/dL
  TG: 41.2 mg/dL
  TP: 5.5 g/dL
  gamma-GTP: 1.4 IU/L
[14]
  TERMINAL_BW: 198.2 g
  Bas: 0%
  Eos: 0.6%
  Fbg: 204.6 mg/dL
  Hb: 12.5 g/dL
  Ht: 37.7%
  Lym: 80.8%
  MCHC: 33.1%
  Mono: 3.2%
  Neu: 15.2%
  PT: 12.6 s
  Plat: 110.7 x10_4/uL
  RBC: 576.4 x10_4/ul
  Ret: 9.6%
  WBC: 131.2 x10_2/uL
  KIDNEY_L: 0.9 g
  KIDNEY_R: 0.9 g
  KIDNEY_TOTAL: 1.9 g
  LIVER: 7.8 g
[15]
  ALP: 778 IU/L
  ALT: 30.2 IU/L
  AST: 61.2 IU/L
  BUN: 10.2 mg/dL
  CRE: 0.6 mg/dL
  DBIL: 0.066 mg/dL
  GLC: 209 mg/dL
  K: 5.2 meq/L
  LDH: 86 IU/L
  Na: 137.4 meq/L
  PL: 100 mg/dL
  RALB: 3.5 g/dL
  TBIL: 0.3 mg/dL
  TC: 56.8 mg/dL
  TG: 24 mg/dL
  TP: 5.1 g/dL
  gamma-GTP: 1.2 IU/L
[16]
  TERMINAL_BW: 201.5 g
  Bas: 0%
  Eos: 0.8%
  Fbg: 218.6 mg/dL
  Hb: 13.9 g/dL
  Ht: 42.3%
  Lym: 80.6%
  MCHC: 32.8%
  Mono: 4.6%
  Neu: 14.4%
  PT: 11.3 s
  Plat: 125.3 x10_4/uL
  RBC: 647.8 x10_4/ul
  Ret: 7.9%
  WBC: 86.8 x10_2/uL
  KIDNEY_L: 1 g
  KIDNEY_R: 1 g
  KIDNEY_TOTAL: 1.9 g
  LIVER: 9.9 g
[17]
  ALP: 760.8 IU/L
  ALT: 99 IU/L
  AST: 81.6 IU/L
  BUN: 15.2 mg/dL
  CRE: 0.6 mg/dL
  DBIL: 0.07 mg/dL
  IP: 7.1 mg/dL
  K: 5.2 meq/L
  LDH: 117.6 IU/L
  Na: 137.4 meq/L
  PL: 93.6 mg/dL
  RALB: 3.8 g/dL
  TBIL: 0.4 mg/dL
  TC: 53.6 mg/dL
  TG: 38.4 mg/dL
  TP: 5.4 g/dL
  gamma-GTP: 1.4 IU/L
